Test results taken from US5028622A, “Administration of amino acids as treatment for neurodegenerative disorders” (Ajinomoto Company, Inc., priority 1989, dated 1991).
“Also recorded” adds a separate entry of the source. Read-outs that look alike come from different tables or passages of the source.

What was measured:
[1] = tested on: glutamate dehydrogenase (GDH); conditions: literature (Yielding and Tomkins 1961); cited from earlier work
[2] = Random blood samples during the one-year trial: plasma amino acid levels; type: in vivo, human; conditions: amino acid-treated ALS patients
Protocol: (§1) Baseline blood chemistries and complete blood counts (CBC were obtained. To assure bioavailability of the BCAA, an oral test dose of the above-described mixture or placebo was given after overnight fasting at baseline. Blood samples were drawn at 0, 60 and 120 minutes after dosing for multi-chemistries, CBSs and serum ammonia and amino acid levels. In addition, a random blood sample was obtained for the above studies at three month intervals with no attention paid to time of oral dosing. Plasma amino acid levels were assayed as previously described. [A. Platakis and J. Caroscio, "Abnormal Glutamate Metabolism in Amyotrophic Lateral Sclerosis, " Ann Neurol, 1987, 22:575-579. The contents of this article are herein incorporated by reference]

clinical = conditions: human, in vivo
Source text: FIG. 4. Results of the branched-chain amino acid oral test dose. […] Blood samples were drawn at the times indicated and processed as previously described(5). Data points represent mean values from 9 patients ±SEM. * Denotes p<0.001 and p<005. Symbols refer comparisons to 0 time values according to the student's t-test.
as §1

ALS = conditions: literature (Patten and Klein 1988); cited from earlier work
[3] = in vivo; cited from earlier work
[4] = target: T1, glutamate dehydrogenase (GDH) (Homo sapiens, UniProt P00367); assay: In vitro leucine activation of membrane bound GDH in post mortem brain tissue; type: biochemical; conditions: for activity at 250 µM: leucine 0.25 mM; for activity at 500 µM: leucine 0.50 mM; for activity at 1000 µM: leucine 1.0 mM; for activity at 5000 µM: leucine 5.0 mM; for activity at 10000 µM: leucine 10 mM
T1 construct: GDH present in post mortem brain tissue; from tissue; host or cells: human post mortem brain: cerebellum (control and multisystem atrophy patient 1), frontal cortex (multisystem atrophy patient 2)
Source text: (Table 4) Tissue preparation and GDH determinations were done according to methods previously reported. [A. D. Colon, A. Plaitakis, S. Berl, and D. D. Clark. "The purification and characterization of soluble and particulate Glutamate Dehydrogenase in Rat Brain," Neurochemistry, 1986, 46:1811-1819. The contents of this publication are herein incorporated by reference] […] FIG. 4.

[5] = Control Patient Cerebellum, read-out: Percent Baseline GDH Activity
[6] = Multisystem Atrophy Multineuron Disease Patient 1 Cerebellum, read-out: Percent Baseline GDH Activity
[7] = Multisystem Atrophy Multineuron Disease Patient 2 Frontal Cortex, read-out: Percent Baseline GDH Activity

T1 sequence (P00367 54-558): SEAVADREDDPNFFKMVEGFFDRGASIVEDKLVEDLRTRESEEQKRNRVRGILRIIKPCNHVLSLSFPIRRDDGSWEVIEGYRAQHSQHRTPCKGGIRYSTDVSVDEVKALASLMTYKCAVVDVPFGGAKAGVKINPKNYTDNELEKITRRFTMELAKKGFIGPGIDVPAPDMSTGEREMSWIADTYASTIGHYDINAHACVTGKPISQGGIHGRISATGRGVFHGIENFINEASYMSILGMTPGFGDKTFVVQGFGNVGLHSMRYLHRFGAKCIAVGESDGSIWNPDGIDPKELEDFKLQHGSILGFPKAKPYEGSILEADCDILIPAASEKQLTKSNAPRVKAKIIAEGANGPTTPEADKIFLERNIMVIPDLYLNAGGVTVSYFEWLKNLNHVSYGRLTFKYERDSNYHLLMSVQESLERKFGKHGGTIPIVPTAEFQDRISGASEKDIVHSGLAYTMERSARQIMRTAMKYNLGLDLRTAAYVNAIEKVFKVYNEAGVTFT

CC[C@H](C)[C@H](N)C(=O)O [L-isoleucine]
activation of glutamate dehydrogenase in vitro [1]: allosterically activate; also recorded: can be activated | plasma level higher than that of placebo-treated patients [2]: 93% | increase in plasma level following oral dosing (clinical; 60 min): 393% | increase in plasma level following oral dosing (clinical; 120 min): 183% | status of ALS patients treated with it as placebo substituted for L-threonine (ALS): revert to previous status

CC(C)[C@H](N)C(=O)O [L-valine]
activation of glutamate dehydrogenase in vitro [1]: allosterically activate | plasma level higher than that of placebo-treated patients [2]: 61% | increase in plasma level following oral dosing (clinical; 60 min): 95% | increase in plasma level following oral dosing (clinical; 120 min): 53%

CC(C)C[C@H](N)C(=O)O [L-leucine]
activation of glutamate dehydrogenase in vitro [1]: allosterically activate; also recorded: can be activated | plasma level higher than that of placebo-treated patients [2]: 112% | effect on plasma and CSF levels of the other two BCAAs [3]: severely depress | activity at 250 µM [4, 5]: 117% | activity at 500 µM [4, 5]: 135% | activity at 1000 µM [4, 5]: 143% | activity at 2500 µM ([4]; Control Patient Cerebellum, leucine 2.5 mM, read-out: Percent Baseline GDH Activity): 155% | activity at 5000 µM [4, 5]: 155% | activity at 10000 µM [4, 5]: 160% | activity at 250 µM [4, 6]: 117% | activity at 500 µM [4, 6]: 153% | activity at 1000 µM [4, 6]: 186% | activity at 5000 µM [4, 6]: 176% | activity at 10000 µM [4, 6]: 176% | activity at 150 µM ([4]; Multisystem Atrophy Multineuron Disease Patient 2 Frontal Cortex, leucine 0.15 mM, read-out: Percent Baseline GDH Activity): 122% | activity at 250 µM [4, 7]: 128% | activity at 500 µM [4, 7]: 141% | lowest concentration effective in producing increases in GDH activity ([4]; post mortem brain tissue, effect concentration dependent): 0.15 mM | increase in plasma level following oral dosing (clinical; 60 min): 300% | increase in plasma level following oral dosing (clinical; 120 min): 192% | concentration at 1 h (clinical; po): ~450 µM | concentration at 2 h (clinical; po): ~300 µM | status of ALS patients treated with it as placebo substituted for L-threonine (ALS): revert to previous status
